Laboratory results published in patent US6358885B1, “Substituted phenylheterocyclic herbicides” (Mississippi State University, priority 1992, dated 2002).

Tests used:
[1] = test system: bedstraw; assay: Test C preemergence/postemergence greenhouse plant response rating 0 to 100; format: in vivo, Galium aparine; conditions: for Plant response rating, Bedstraw: 0 to 100 scale
Outline: (§1)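 Compounds in non-phytotoxic solvent applied preemergence to sandy loam one day after planting, postemergence at the 1–4 leaf stage, or to ~2.5 cm floodwater over silt loam.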

[2] = test system: umbrella sedge; assay: Test C flood test plant response rating 0 to 100; format: in vivo, Cyperus difformis; conditions: for Plant response rating Umbrella sedge: flood test species listed under POSTEMERGENCE, 0 to 100 scale
Outline: as §1

[3] = test system: wild buckwheat; assay: Test B preemergence/postemergence greenhouse plant response rating 0 to 10; format: in vivo, Polygonum convolvulus; conditions: 0 to 10 scale
Outline: (§2)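 Both application timings were run together: seeds got compound preemergence, and established seedlings (two to eighteen cm) got it postemergence. Non-phytotoxic solvent carried the chemical. Ratings are visual, versus controls, at twelve to sixteen days.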

[4] = test system: sugar beet; assay: Test C preemergence/postemergence greenhouse plant response rating 0 to 100; format: in vivo, Beta vulgaris; conditions: for Plant response rating, Sugar beet: 0 to 100 scale
Outline: as §1

[5] = test system: wild oat; assay: as above; format: in vivo, Avena fatua; conditions: for Plant response rating, Wild oat: 0 to 100 scale
Outline: as §1

[6] = test system: ryegrass; assay: as above; format: in vivo, Lolium multiflorum; conditions: for Plant response rating Ryegrass: 0 to 100 scale
Outline: as §1

[7] = test system: chickweed; assay: Test B preemergence/postemergence greenhouse plant response rating 0 to 10; format: in vivo, Stellaria media; conditions: for Plant response rating, Chickweed: 0 to 10 scale
Outline: as §2

[8] = test system: barnyardgrass; assay: as above; format: in vivo, Echinochloa crus-galli; conditions: for Plant response rating, Barnyardgrass: 0 to 10 scale
Outline: as §2

[9] = test system: crabgrass; assay: Test C preemergence/postemergence greenhouse plant response rating 0 to 100; format: in vivo, Digitaria sanguinalis; conditions: for Plant response rating, Crabgrass: 0 to 100 scale
Outline: as §1

[10] = test system: smooth crabgrass; assay: Test G preemergence/postemergence greenhouse plant response rating 0 to 100; format: in vivo, Digitaria ischaemum; conditions: 0 to 100 scale
Description: Seeds, rhizomes, or plant parts of alfalfa (Medicago ativa), annual bluegrass (Poa annua), bermudagrass (Cynodon dactylon), broadleaf signalgrass (Brachiaria plantaginea), common purslane (Portulaca oleracea), common ragweed (Ambrosia elatior), […] (Paspalum dilatatum), goosegrass (Eleusine indica), guineagrass (Panicum maximum), […] exaltata), johnsongrass (Sorghum halepense), large crabgrass (Digitaria sanguinalis), peanut (Arachis hypoagaea), pitted morningglory (Ipomoea lacunosa), purple nutsedge (Cyperus rotundus), sandbur (Cenchrus echinatus), smooth crabgrass (Digitaria ischaemum) and yellow nutsedge (Cyperus esculentus) were planted into greenhouse pots containing greenhouse planting medium. Each pot contained only one plant species. The test compound was dissolved in a non-phytotoxic solvent and applied preemergence and/or postemergence to the plants. Preemergence applications were made within one day of planting the seeds or plant parts. Postemergence applications were applied when the plants were in the two to four leaf stage (three to twenty cm). Test chemicals were dissolved in a non-phytotoxic solvent and applied preemergence and postemergence to the plants. Untreated control plants and treated plants were placed in the greenhouse and visually evaluated for injury at 13 to 21 days after herbicide application. […] A dash (-) response indicates no test result.

[11] = test system: corn; assay: Test C preemergence/postemergence greenhouse plant response rating 0 to 100; format: in vivo, Zea mays; conditions: for Plant response rating, Corn: 0 to 100 scale
Outline: as §1

[12] = test system: rape; assay: Test B preemergence/postemergence greenhouse plant response rating 0 to 10; format: in vivo, Brassica napus; conditions: 0 to 10 scale
Outline: as §2

[13] = test system: downy brome; assay: Test C preemergence/postemergence greenhouse plant response rating 0 to 100; format: in vivo, Bromus tectorum; conditions: for Plant response rating Downy Brome: 0 to 100 scale
Outline: as §1

`C#CCOc1cc(-c2nn3c(c2Br)CCCC3)c(F)cc1Cl` [Compound 26] was tested, and the “Plant response rating, Bedstraw” value ([1]; POSTEMERGENCE, 62 g/ha) was 100, the “Plant response rating, Bedstraw” value ([1]; POSTEMERGENCE, 250 g/ha) was 100 and the “Plant response rating, Bedstraw” value ([1]; PREEMERGENCE, 62 g/ha) was 100. For the same molecule, the “Plant response rating, Bedstraw” value ([1]; PREEMERGENCE, 250 g/ha) was 100, the “Plant response rating (0 to 100), Bedstraw” value ([1]; PREEMERGENCE, Rate 4 g/ha) was 20 and the “Plant response rating (0 to 100), Bedstraw” value ([1]; Rate 4 g/ha, POSTEMERGENCE) was 70. For the same molecule, the “Plant response rating (0 to 100), Bedstraw” value ([1]; Rate 16 g/ha, POSTEMERGENCE) was 80, the “Plant response rating (0 to 100), Bedstraw” value ([1]; Rate 16 g/ha, PREEMERGENCE) was 60 and the “Plant response rating (0 to 100), Umbrella sedge” value ([2]; POSTEMERGENCE section, flood test, Rate 4 g/ha) was 0. For the same molecule, the “Plant response rating (0 to 100), Umbrella sedge” value ([2]; Rate 16 g/ha, under POSTEMERGENCE head (flood test species)) was 70, the “Plant response rating Umbrella sedge” value ([2]; 62 g/ha) was 95 and the “Plant response rating Umbrella sedge” value ([2]; 250 g/ha) was 100. For the same molecule, the “Plant response rating, Wild buckwheat” value ([3]; POSTEMERGENCE, Rate 50 g/ha) was 10, the “Plant response rating, Wild buckwheat” value ([3]; POSTEMERGENCE, Rate 200 g/ha) was 10 and the “Plant response rating, Wild buckwheat” value ([3]; PREEMERGENCE, Rate 50 g/ha) was 7. The “Plant response rating, Wild buckwheat” value ([3]; Rate 200 g/ha, PREEMERGENCE) was 10, the “Plant response rating, Sugar beet” value ([4]; POSTEMERGENCE, 62 g/ha) was 100 and the “Plant response rating, Sugar beet” value ([4]; POSTEMERGENCE, 250 g/ha) was 100. The “Plant response rating (0 to 100), Sugar beet” value ([4]; POSTEMERGENCE, Rate 4 g/ha) was 100, the “Plant response rating, Sugar beet” value ([4]; PREEMERGENCE, 250 g/ha) was 100 and the “Plant response rating (0 to 100), Sugar beet” value ([4]; PREEMERGENCE, Rate 4 g/ha) was 0. The “Plant response rating (0 to 100), Sugar beet” value ([4]; Rate 16 g/ha, POSTEMERGENCE) was 100, the “Plant response rating (0 to 100), Sugar beet” value ([4]; Rate 16 g/ha, PREEMERGENCE) was 20 and the “Plant response rating, Wild oat” value ([5]; POSTEMERGENCE, 62 g/ha) was 30. For the same molecule, the “Plant response rating, Wild oat” value ([5]; POSTEMERGENCE, 250 g/ha) was 50, the “Plant response rating (0 to 100), Wild oat” value ([5]; POSTEMERGENCE, Rate 4 g/ha) was 20 and the “Plant response rating, Wild oat” value ([5]; PREEMERGENCE, 250 g/ha) was 30. For the same molecule, the “Plant response rating (0 to 100), Wild oat” value ([5]; PREEMERGENCE, Rate 4 g/ha) was 0, the “Plant response rating (0 to 100), Wild oat” value ([5]; Rate 16 g/ha, POSTEMERGENCE) was 30 and the “Plant response rating (0 to 100), Wild oat” value ([5]; Rate 16 g/ha, PREEMERGENCE) was 0. The “Plant response rating Ryegrass” value ([6]; POSTEMERGENCE, 62 g/ha) was 30, the “Plant response rating Ryegrass” value ([6]; POSTEMERGENCE, 250 g/ha) was 50 and the “Plant response rating (0 to 100), Ryegrass” value ([6]; POSTEMERGENCE, Rate 4 g/ha) was 20. For the same molecule, the “Plant response rating Ryegrass” value ([6]; PREEMERGENCE, 62 g/ha) was 0, the “Plant response rating Ryegrass” value ([6]; PREEMERGENCE, 250 g/ha) was 20 and the “Plant response rating (0 to 100), Ryegrass” value ([6]; PREEMERGENCE, Rate 4 g/ha) was 0. The “Plant response rating (0 to 100), Ryegrass” value ([6]; Rate 16 g/ha, POSTEMERGENCE) was 20, the “Plant response rating (0 to 100), Ryegrass” value ([6]; Rate 16 g/ha, PREEMERGENCE) was 0 and the “Plant response rating (0 to 10 scale), Chickweed” value ([7]; POSTEMERGENCE, Rate 50 g/ha) was 10. The “Plant response rating, Chickweed” value ([7]; POSTEMERGENCE, Rate 200 g/ha) was 10, the “Plant response rating, Chickweed” value ([7]; PREEMERGENCE, Rate 50 g/ha) was 10 and the “Plant response rating, Chickweed” value ([7]; Rate 200 g/ha, PREEMERGENCE) was 10. For the same molecule, the “Plant response rating (0 to 10 scale), Barnyardgrass” value ([8]; POSTEMERGENCE, Rate 50 g/ha) was 5, the “Plant response rating, Barnyardgrass” value ([8]; POSTEMERGENCE, Rate 200 g/ha) was 7 and the “Plant response rating, Barnyardgrass” value ([8]; PREEMERGENCE, Rate 50 g/ha) was 2. For the same molecule, the “Plant response rating, Barnyardgrass” value ([8]; Rate 200 g/ha, PREEMERGENCE) was 7, the “Plant response rating, Crabgrass” value ([9]; POSTEMERGENCE, 62 g/ha) was 20 and the “Plant response rating, Crabgrass” value ([9]; POSTEMERGENCE, 250 g/ha) was 40. The “Plant response rating (0 to 100), Crabgrass” value ([9]; POSTEMERGENCE, Rate 4 g/ha) was 0, the “Plant response rating, Crabgrass” value ([9]; PREEMERGENCE, 62 g/ha) was 20 and the “Plant response rating, Crabgrass” value ([9]; PREEMERGENCE, 250 g/ha) was 60. For the same molecule, the “Plant response rating (0 to 100), Crabgrass” value ([9]; PREEMERGENCE, Rate 4 g/ha) was 0, the “Plant response rating (0 to 100), Crabgrass” value ([9]; Rate 16 g/ha, POSTEMERGENCE) was 0 and the “Plant response rating (0 to 100), Crabgrass” value ([9]; Rate 16 g/ha, PREEMERGENCE) was 0. For the same molecule, the “Plant response rating, Smooth Crabgras” value ([10]; POSTEMERGENCE, Rate 125 g/ha) was 0, the “Plant response rating, Smooth Crabgras” value ([10]; POSTEMERGENCE, Rate 250 g/ha) was 0 and the “Plant response rating, Smooth Crabgras” value ([10]; PREEMERGENCE, Rate 125 g/ha) was 0. For the same molecule, the “Plant response rating, Smooth Crabgras” value ([10]; PREEMERGENCE, Rate 250 g/ha) was 40, the “Plant response rating, Corn” value ([11]; POSTEMERGENCE, 62 g/ha) was 50 and the “Plant response rating, Corn” value ([11]; POSTEMERGENCE, 250 g/ha) was 50. For the same molecule, the “Plant response rating, Corn” value ([11]; PREEMERGENCE, 62 g/ha) was 0, the “Plant response rating, Corn” value ([11]; PREEMERGENCE, 250 g/ha) was 30 and the “Plant response rating (0 to 100), Corn” value ([11]; PREEMERGENCE, Rate 4 g/ha) was 0. The “Plant response rating (0 to 100), Corn” value ([11]; Rate 4 g/ha, POSTEMERGENCE) was 30, the “Plant response rating (0 to 100), Corn” value ([11]; Rate 16 g/ha, POSTEMERGENCE) was 40 and the “Plant response rating (0 to 100), Corn” value ([11]; Rate 16 g/ha, PREEMERGENCE) was 0. The “Plant response rating, Rape” value ([12]; POSTEMERGENCE, Rate 50 g/ha) was 9, the “Plant response rating, Rape” value ([12]; POSTEMERGENCE, Rate 200 g/ha) was 10 and the “Plant response rating, Rape” value ([12]; PREEMERGENCE, Rate 50 g/ha) was 3. The “Plant response rating, Rape” value ([12]; Rate 200 g/ha, PREEMERGENCE) was 10, the “Plant response rating Downy Brome” value ([13]; POSTEMERGENCE, 62 g/ha) was 50 and the “Plant response rating Downy Brome” value ([13]; POSTEMERGENCE, 250 g/ha) was 70. The “Plant response rating (0 to 100), Downy Brome” value ([13]; POSTEMERGENCE, Rate 4 g/ha) was 20, the “Plant response rating Downy Brome” value ([13]; PREEMERGENCE, 62 g/ha) was 0 and the “Plant response rating Downy Brome” value ([13]; PREEMERGENCE, 250 g/ha) was 20. For the same molecule, the “Plant response rating (0 to 100), Downy Brome” value ([13]; PREEMERGENCE, Rate 4 g/ha) was 0, the “Plant response rating (0 to 100), Downy Brome” value ([13]; Rate 16 g/ha, POSTEMERGENCE) was 40 and the “Plant response rating (0 to 100), Downy Brome” value ([13]; Rate 16 g/ha, PREEMERGENCE) was 0.
